Results on 16 molecules are retold here after patent US10266497B2 (ABIDE THERAPEUTICS, INC., priority 2017, dated 2019).

The target in assay [1] is T1, MAGL (Homo sapiens, UniProt Q99685).
T1 sequence (Q99685 1-303): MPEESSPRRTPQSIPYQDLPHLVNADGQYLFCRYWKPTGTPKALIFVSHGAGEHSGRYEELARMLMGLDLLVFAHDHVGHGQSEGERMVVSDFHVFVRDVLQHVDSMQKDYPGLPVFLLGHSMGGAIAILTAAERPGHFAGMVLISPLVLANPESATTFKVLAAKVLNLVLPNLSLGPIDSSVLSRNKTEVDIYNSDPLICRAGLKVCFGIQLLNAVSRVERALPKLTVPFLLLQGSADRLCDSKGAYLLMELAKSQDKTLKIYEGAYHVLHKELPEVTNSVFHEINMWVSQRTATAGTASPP
The assay is described as follows: In vitro competitive activity-based protein profiling, MAGL, human. Conditions: for inhibition at 1 µM: read-out: MAGL % inh. 1 μM (human).

Assay [2] deals with T2, MAGL (Mus musculus, UniProt O35678).
T2 sequence (O35678 1-303): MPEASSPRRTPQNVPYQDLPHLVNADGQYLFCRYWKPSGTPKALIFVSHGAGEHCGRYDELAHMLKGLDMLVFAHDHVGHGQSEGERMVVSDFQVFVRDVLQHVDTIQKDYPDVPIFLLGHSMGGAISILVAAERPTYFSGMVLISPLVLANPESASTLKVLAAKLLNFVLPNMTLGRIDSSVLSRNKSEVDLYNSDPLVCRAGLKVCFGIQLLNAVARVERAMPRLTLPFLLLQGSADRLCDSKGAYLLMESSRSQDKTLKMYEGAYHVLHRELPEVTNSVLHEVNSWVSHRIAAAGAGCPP
Put plainly: In vitro competitive activity-based protein profiling, MAGL, mouse. Conditions: read-out: MAGL % inh. 1 μM (mouse).

Assay [3] concerns the target T3, FAAH (Homo sapiens, UniProt O00519).
T3 sequence (O00519 1-579): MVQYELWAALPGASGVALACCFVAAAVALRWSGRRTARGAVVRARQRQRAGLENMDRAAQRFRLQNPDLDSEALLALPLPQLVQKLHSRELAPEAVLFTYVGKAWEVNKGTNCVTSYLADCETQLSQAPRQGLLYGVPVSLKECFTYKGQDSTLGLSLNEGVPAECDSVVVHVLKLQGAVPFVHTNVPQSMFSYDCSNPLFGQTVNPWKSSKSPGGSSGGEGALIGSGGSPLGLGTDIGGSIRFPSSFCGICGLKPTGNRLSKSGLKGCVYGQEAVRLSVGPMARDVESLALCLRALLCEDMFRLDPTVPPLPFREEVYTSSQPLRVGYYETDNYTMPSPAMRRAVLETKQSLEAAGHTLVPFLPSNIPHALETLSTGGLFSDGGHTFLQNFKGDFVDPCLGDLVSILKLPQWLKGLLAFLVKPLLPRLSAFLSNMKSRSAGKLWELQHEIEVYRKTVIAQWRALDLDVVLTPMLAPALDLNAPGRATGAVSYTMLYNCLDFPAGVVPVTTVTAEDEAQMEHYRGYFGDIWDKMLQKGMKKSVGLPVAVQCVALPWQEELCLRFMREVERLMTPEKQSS
The assay is described as follows: In vitro competitive activity-based protein profiling, FAAH, human. Conditions: for inhibition at 1 µM: read-out: FAAH % inh. 1 μM (human).

Assay [4] addresses T4, FAAH (Mus musculus, UniProt O08914).
T4 sequence (O08914 1-579): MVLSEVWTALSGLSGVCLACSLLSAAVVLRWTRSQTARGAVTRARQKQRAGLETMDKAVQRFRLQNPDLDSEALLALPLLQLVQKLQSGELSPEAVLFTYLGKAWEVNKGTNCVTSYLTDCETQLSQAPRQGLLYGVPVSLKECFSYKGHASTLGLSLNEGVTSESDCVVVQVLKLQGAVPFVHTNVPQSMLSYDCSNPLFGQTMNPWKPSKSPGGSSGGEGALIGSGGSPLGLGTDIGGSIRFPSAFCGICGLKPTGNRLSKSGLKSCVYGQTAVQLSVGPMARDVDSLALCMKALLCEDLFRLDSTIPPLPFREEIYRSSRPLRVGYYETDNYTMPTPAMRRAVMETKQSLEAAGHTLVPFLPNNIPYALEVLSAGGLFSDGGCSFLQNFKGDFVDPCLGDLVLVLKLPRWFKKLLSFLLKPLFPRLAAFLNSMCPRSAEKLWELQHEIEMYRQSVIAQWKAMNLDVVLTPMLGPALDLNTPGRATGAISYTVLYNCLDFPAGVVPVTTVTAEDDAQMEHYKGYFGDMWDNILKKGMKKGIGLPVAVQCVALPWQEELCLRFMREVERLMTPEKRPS
The assay is described as follows: In vitro competitive activity-based protein profiling, FAAH, mouse. Conditions: read-out: FAAH % inh. 1 μM (mouse).

As for `O=C(O)c1ccn(C(=O)N2CCN(Cc3ccc(Cl)cc3-c3nnco3)CC2)n1` [Example 67, 1-(4-(4-chloro-2-(1,3,4-oxadiazol-2-yl)benzyl)piperazine-1-carbonyl)-1H-pyrazole-3-carboxylic acid], the inhibition at 1 µM on MAGL [1] is greater than 75%; at MAGL [2] it was greater than 75%; at FAAH [3], 0 to 25%; on FAAH [4], 0 to 25%.

With `O=C(O)c1ccn(C(=O)N2CCN(Cc3ccc(Cl)cc3)CC2)n1` [Example 1, 1-(4-(4-chlorobenzyl)piperazine-1-carbonyl)-1H-pyrazole-3-carboxylic Acid], the values for the inhibition at 1 µM at MAGL [1], on MAGL [2] and on FAAH [4] were 25 to 50%, 50 to 75% and 0 to 25%, respectively. The inhibition at 10 µM on FAAH [3] (read-out: FAAH % inh. (human) at 10 uM) is greater than 75%.

For `O=C(O)c1ccn(C(=O)N2CCC3(CCCN3Cc3ccc(C(F)(F)F)cc3-c3nnn[nH]3)CC2)n1` [Example 126, 1-(1-(2-(1H-tetrazol-5-yl)-4-(trifluoromethyl)benzyl)-1,8-diazaspiro[4.5]decane-8-carbonyl)-1H-pyrazole-3-carboxylic acid], the inhibition at 1 µM at MAGL [1] was 25 to 50%; at MAGL [2], 0 to 25%; at FAAH [3], 0 to 25%; at FAAH [4], 0 to 25%.

`O=C(O)c1ccn(C(=O)N2CCC(OCc3cc(F)cc(Cl)c3)CC2)n1` [Example 42, 1-(4-((3-chloro-5-fluorobenzyl)oxy)piperidine-1-carbonyl)-1H-pyrazole-3-carboxylic acid]: the IC50 at MAGL [1] and at FAAH [3] was 100 to 1000 nM each time. The inhibition at 1 µM on MAGL [1] is greater than 75%; at MAGL [2] it was greater than 75%; at FAAH [3], greater than 75%; on FAAH [4] it was 0 to 25%.

Turning to `O=C(O)c1ccn(C(=O)N2CCC3(CCCN3C(=O)c3cc4ccc(C(F)(F)F)cc4s3)CC2)n1` [Example 56, 1-(1-(6-(trifluoromethyl)benzo[b]thiophene-2-carbonyl)-1,8-diazaspiro[4.5]decane-8-carbonyl)-1H-pyrazole-3-carboxylic acid], the inhibition at 1 µM is greater than 75% on MAGL [1], greater than 75% at MAGL [2], 0 to 25% on FAAH [3] and 50 to 75% at FAAH [4].

Regarding `NC(=O)c1ccn(C(=O)N2CCN(Cc3ccc(Cl)cc3)CC2)n1` [Example 181, 1-(4-(4-chlorobenzyl)pipera-zine-1-carbonyl)-1H-pyrazole-3-carboxamide], the inhibition at 1 µM on MAGL [1], at MAGL [2], on FAAH [3] and on FAAH [4] was greater than 75% in each case.

For the molecule `Cc1ccc(CN2CCC3(CCN(C(=O)n4ccc(C(=O)O)n4)CC3)C2)cc1Cl` [Example 154, 1-(2-(3-chloro-4-methylbenzyl)-2,8-diazaspiro[4.5]decane-8-carbonyl)-1H-pyrazole-3-carboxylic acid], the inhibition at 1 µM at MAGL [1] is greater than 75%; on MAGL [2], greater than 75%; on FAAH [3], 0 to 25%; on FAAH [4], 0 to 25%.

Consider `O=C(O)c1ccn(C(=O)N2CCC3(CCN(Cc4cnccc4C(F)(F)F)C3)CC2)n1` [Example 127], for which the inhibition at 1 µM on MAGL [1] was greater than 75%; on MAGL [2], greater than 75%; on FAAH [3] it was 0 to 25%; at FAAH [4], 0 to 25%.

In the case of `Cc1cc(-c2ccccc2)ccc1CN1CCN(C(=O)n2ccc(C(=O)O)n2)CC1` [Example 16, 1-(4-((3-Methyl-[1,1′-biphenyl]-4-yl)methyl)piperazine-1-carbonyl)-1H-pyrazole-3-carboxylic Acid], the inhibition at 1 µM is greater than 75% on MAGL [1], greater than 75% on MAGL [2], 0 to 25% at FAAH [3] and 50 to 75% on FAAH [4]. The molecule further yielded an IC50 on FAAH [3] of 1000 to 10000 nM.

For the molecule `O=C(O)c1nn(C(=O)N2CC3CN(Cc4cccc(Oc5ccc(Cl)cc5)c4)CC3C2)cc1Cl` (stereo not drawn) [Example 137, 4-chloro-1-(5-(3-(4-chlorophenoxy)benzyl)octahydro-pyrrolo[3,4-c]pyrrole-2-carbonyl)-1H-pyrazole-3-carboxylic acid], the IC50 at MAGL [1] and at FAAH [3] was 100 to 1000 nM throughout. Besides, the inhibition at 1 µM on MAGL [1], at MAGL [2], at FAAH [3] and at FAAH [4] was greater than 75% in each case.

For `O=C(O)c1ccn(C(=O)N2CCC(NCc3cccc(Oc4ccc(Cl)cc4)c3)CC2)n1` [Example 190, 1-(4-((3-(4-chlorophenoxy)benzyl)amino)piper-idine-1-carbonyl)-1H-pyrazole-3-carboxylic acid], the inhibition at 1 µM at MAGL [1] lay within 25 to 50%; at MAGL [2], 0 to 25%; on FAAH [3], 25 to 50%; at FAAH [4], 50 to 75%.

`O=C(O)c1ccn(C(=O)N2CCC3(CCN(Cc4cc(F)cc(C(F)(F)F)c4)C3)CC2)n1` [Example 152, 1-(2-(3-fluoro-5-(trifluoromethyl)benzyl)-2,8-diazaspiro[4.5]decane-8-carbonyl)-1H-pyrazole-3-carboxylic acid]: the inhibition at 1 µM on MAGL [1] was greater than 75%; on MAGL [2], greater than 75%; on FAAH [3], 0 to 25%; on FAAH [4] it was 50 to 75%.

As for `CN(Cc1cccc(C(F)(F)F)c1)C1CCN(C(=O)n2ccc(C(N)=O)n2)CC1` [Example 176, 1-(4-(methyl(3-(trifluoromethyl)benzyl)amino)piper-idine-1-carbonyl)-1H-pyrazole-3-carboxamide], the inhibition at 1 µM at MAGL [1], at MAGL [2], on FAAH [3] and at FAAH [4] was greater than 75% throughout.

Take `O=C(O)c1ccn(C(=O)N2CCN(Cc3cccc(Oc4cccnc4)c3)CC2)n1` [Example 18, 1-(4-(3-(Pyridin-3-yloxy)benzyl)piperazine-1-carbonyl)-1H-pyrazole-3-carboxylic Acid]: the inhibition at 1 µM at MAGL [1] was in the range of 50 to 75%; at MAGL [2] it was 25 to 50%; at FAAH [3], 0 to 25%; at FAAH [4], 0 to 25%.

In the case of `C#Cc1ccc(CN2CCN(C(=O)n3ccc(C(N)=O)n3)CC2)cc1` [Example 144, 1-(4-(4-ethynylbenzyl)piper-azine-1-carbonyl)-1H-pyrazole-3-carboxamide], the inhibition at 1 µM on MAGL [1], at MAGL [2], on FAAH [3] and at FAAH [4] was greater than 75% each time.

As for `O=C(O)c1nn(C(=O)N2CCC3(CCN(Cc4ccc(N5CCCC5)cc4C(F)(F)F)C3)CC2)cc1C(F)(F)F` [Example 150, 1-(2-(4-(pyrrolidin-1-yl)-2-(trifluoromethyl)benzyl)-2,8-diazaspiro[4.5]decane-8-carbonyl)-4-(trifluoromethyl)-1H-pyrazole-3-carboxylic acid], the inhibition at 1 µM was 25 to 50% at MAGL [1], 25 to 50% at MAGL [2], 50 to 75% on FAAH [3] and greater than 75% at FAAH [4].
